The assay concerns SN12K1 renal. In words: DTP human tumour cell line panel, 48 h.

Each structure is given as a SMILES string.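 Growth conditions: 96-well plates. Treatment: test compound, 48 hours, 5 concentrations. Analysis: linear interpolation between bracketing concentrations; unreached endpoints set to highest concentration. TGI is the concentration that stops growth completely.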

The TGI is the concentration at which net growth stops. Low values mean more potent growth arrest, high ones less potent growth arrest.

For the molecule `Nc1ncnc2c(C3OC(CO)C(O)C3O)[nH]nc12` (stereo unspecified), the TGI was 1880 nM. This lies in the single-digit micromolar range.

Source of the values: PubChem BioAssay (NCI).
